Each structure is given as a SMILES string. Non-standard residues stand in square brackets, D forms with d. Residues, ends and D or L forms follow the SMILES beside them. Sta = CC(C)C[C@H](N)[C@@H](O)CC(=O)O

This note sets out measurements from patent US8946224B2, “Substituted [1,2,4]triazolo[4,3-A]pyrazines for medicaments and pharmaceutical compositions” (Redx Pharma Limited, priority 2010, dated 2015).

The test deals with T1, renin (Homo sapiens, UniProt P00797).
T1 sequence (P00797 67-406): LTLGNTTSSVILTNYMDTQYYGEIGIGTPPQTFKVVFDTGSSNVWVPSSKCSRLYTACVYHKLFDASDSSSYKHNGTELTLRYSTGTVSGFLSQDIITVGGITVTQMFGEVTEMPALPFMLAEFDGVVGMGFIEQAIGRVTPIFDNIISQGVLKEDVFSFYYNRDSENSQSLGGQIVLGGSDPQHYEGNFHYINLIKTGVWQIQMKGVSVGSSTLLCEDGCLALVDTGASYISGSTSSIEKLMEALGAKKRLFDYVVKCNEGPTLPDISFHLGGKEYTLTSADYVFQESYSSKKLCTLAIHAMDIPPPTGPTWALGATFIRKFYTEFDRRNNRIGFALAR
Kind of test: Renin inhibition (Comparative Example 98). The test is classed as biochemical. As for the experimental part:
The solutions of the compounds to be tested were prepared in DMSO at a concentration of 10 mM, divided into aliquots and stored at −20° C. The stock solutions were further diluted with assay buffer to make final test solutions. All the final test solutions contained no more than 2.0% DMSO.
Data were recorded by PHEARstar^PLUS.
Each assay was repeated for each compound 10 times.

Take `CC(=O)N[C@@H](Cc1c[nH]cn1)C(=O)N1CCC[C@H]1C(=O)N[C@@H](Cc1ccccc1)C(=O)N[C@H](C(=O)N[C@@H](CC(C)C)[C@@H](O)CC(=O)N[C@@H](CC(C)C)C(=O)N[C@@H](Cc1ccccc1)C(N)=O)C(C)C` [Positive control, Ac-HPFV-(Sta)-LF-NH2] (Ac-HPFV[Sta]LF-NH2): the IC50 turned out to be 8.4 nM.
